Assay results from PMC8379256, “A xanthene derivative, DS20060511, attenuates glucose intolerance by inducing skeletal muscle-specific GLUT4 translocation in mice” (Communications Biology, 2021).
Values joined by “and” are separate entries in the source; they are usually repeats but may differ in a detail not shown here. Identical values can stand only once.

Tests used:
C57BL/6 mice = assay: Oral glucose tolerance test (GTT) in C57BL/6 mice: blood glucose and plasma insulin; format: in vivo, mouse; design: Blood glucose AUC: unit not given here
Protocol: Fig. 2 Treatment with DS20060511 decreases the blood glucose levels via inducing GLUT4 translocation and increasing skeletal muscle glucose uptake. a, b Blood glucose levels after treatment with DS20060511 (30 mg kg^−1) in C57BL/6 mice that had received continued access to food (a) and mice that had been denied access to food overnight (b) (n = 8). Values shown are means ± SEM. **P < 0.01 vs. 0 min by one-way ANOVA followed by Dunnett’s test. c Blood glucose and plasma insulin levels during oral GTT in the C57BL/6 mice (n = 5–6). The mice received oral administration of vehicle or DS20060511 at the indicated dose, 15 min prior to glucose administration (1.5 g kg^−1). Values shown are means ± SEM. *P < 0.05, **P < 0.01 vs. vehicle by one-way ANOVA followed by Williams’ test. d [^3H]-2-DG uptake in the soleus muscle, gastrocnemius muscle (Gastro.), heart, and white adipose tissue (WAT) at 60 min during the intraperitoneal GTT in the C57BL/6 mice (n = 3). The mice received oral administration of vehicle or DS20060511 (30 mg kg^−1), 15 min prior to glucose administration (1 g kg^−1 glucose containing [^3H]-2-DG). […] Uncropped blots for e can be found in Supplementary Fig. 6.
Mice that had been denied access to food overnight received the indicated oral dose of DS20060511 or vehicle 15 min prior to the glucose load (1.5 g kg^−1, except for eNOS-knockout mice, which received 3.0 g kg^−1). Then, after the oral glucose load, the blood glucose levels were measured using Glutest Every in samples obtained from the tail vein at the indicated timepoints. Plasma insulin concentrations were also measured with an ELISA kit (Morinaga Institute of Biological Science, Yokohama, Japan) in blood samples collected from the tail vein at the indicated timepoints.

[1] = test system: human liver microsomal fraction; assay: Metabolic stability in human liver microsomes; format: in vitro ADME; conditions: after 1 h incubation, 1 μM
Protocol: C57BL/6 mice that had been denied access to food overnight received the indicated oral dose of DS20060511, and blood samples were collected from the tail vein at the indicated timepoints. Plasma samples for quantitation of DS20060511 were prepared by centrifugation. Another group of mice received oral administration DS20060511 (30 mg kg^−1) and euthanized 75 min later. The soleus and gastrocnemius muscles, heart, and inguinal WAT were removed and homogenized in water (5 vol.) for quantitation of the drug concentrations. Plasma samples and tissue homogenates were analyzed by LC-MS/MS (Nexera MP System, SHIMADZU, Kyoto, Japan; API4000 System, SCIEX, Framingham, MA). The tissue concentrations of the compound were calculated by assuming the volume of 1 g of tissue is 1 mL. Evaluation of the metabolic stability of the compound to mouse and human cytochrome P450 (CYP) was conducted as follows. […] The results were expressed as the amount of compound remaining (expressed as a percentage), based on the ratio of the relative area to that in the control (without reaction).

COc1ccc2c(C)c(C(=O)O)ccc2c1C1C2=C(CC(C)(C)CC2=O)OC2=C1C(=O)CC(C)(C)C2 [DS20060511]
insulin secretion during oral GTT (in words) (C57BL/6 mice; all DS20060511-treated groups, Fig. 2c): significantly decreased
Blood glucose AUC (C57BL/6 mice; oral GTT, 1 mg/kg): 366 and 401 and 377 and 335 and 390 and 419
Plasma insulin AUC (C57BL/6 mice; oral GTT, 1 mg/kg): 0.29 and 0.49 and 0.32 and 0.27 and 0.43
Blood glucose (C57BL/6 mice; oral GTT, 1 mg/kg po at -15 min, -15 min, 1 mg/kg): 83 mg/dL and 81 mg/dL and 91 mg/dL and 77 mg/dL and 94 mg/dL and 72 mg/dL
Blood glucose (C57BL/6 mice; oral GTT, 1 mg/kg, 0 min): 104 mg/dL and 115 mg/dL and 92 mg/dL and 106 mg/dL and 89 mg/dL
Blood glucose (C57BL/6 mice; oral GTT, 1 mg/kg, 15 min): 270 mg/dL and 311 mg/dL and 217 mg/dL and 301 mg/dL
Blood glucose (C57BL/6 mice; oral GTT, 1 mg/kg, 30 min): 242 mg/dL and 212 mg/dL and 228 mg/dL and 193 mg/dL and 199 mg/dL and 254 mg/dL
Plasma insulin (C57BL/6 mice; oral GTT, 1 mg/kg, 30 min): 0.30 ng/mL and 0.44 ng/mL and 0.25 ng/mL and 0.34 ng/mL and 0.42 ng/mL and 0.33 ng/mL
Blood glucose (C57BL/6 mice; oral GTT, 1 mg/kg, 60 min): 171 mg/dL and 217 mg/dL and 165 mg/dL and 153 mg/dL and 199 mg/dL and 230 mg/dL
Blood glucose (C57BL/6 mice; oral GTT, 1 mg/kg, 90 min): 118 mg/dL and 159 mg/dL and 127 mg/dL and 138 mg/dL and 142 mg/dL and 153 mg/dL
Blood glucose (C57BL/6 mice; oral GTT, 1 mg/kg, 120 min): 106 mg/dL and 119 mg/dL and 109 mg/dL and 124 mg/dL and 132 mg/dL
Blood glucose AUC (C57BL/6 mice; oral GTT, 3 mg/kg): 360 and 323 and 398 and 316 and 320 and 374
Plasma insulin AUC (C57BL/6 mice; oral GTT, 3 mg/kg): 0.28 and 0.40 and 0.34 and 0.29 and 0.31
Blood glucose (C57BL/6 mice; oral GTT, 3 mg/kg, 0 min): 104 mg/dL and 117 mg/dL and 90 mg/dL
Blood glucose (C57BL/6 mice; oral GTT, 3 mg/kg, 15 min): 263 mg/dL and 240 mg/dL and 249 mg/dL and 228 mg/dL
Plasma insulin (C57BL/6 mice; oral GTT, 3 mg/kg, 15 min): 0.51 ng/mL and 0.58 ng/mL and 0.65 ng/mL and 0.53 ng/mL
Blood glucose (C57BL/6 mice; oral GTT, 3 mg/kg, 30 min): 228 mg/dL and 164 mg/dL and 233 mg/dL and 181 mg/dL
Plasma insulin (C57BL/6 mice; oral GTT, 3 mg/kg, 30 min): 0.28 ng/mL and 0.30 ng/mL and 0.37 ng/mL and 0.39 ng/mL and 0.26 ng/mL
Blood glucose (C57BL/6 mice; oral GTT, 3 mg/kg, 60 min): 161 mg/dL and 142 mg/dL and 202 mg/dL and 152 mg/dL
Blood glucose (C57BL/6 mice; oral GTT, 3 mg/kg, 90 min): 132 mg/dL and 126 mg/dL and 148 mg/dL and 100 mg/dL
Blood glucose (C57BL/6 mice; oral GTT, 3 mg/kg, 120 min): 105 mg/dL and 122 mg/dL and 129 mg/dL
Blood glucose (C57BL/6 mice; oral GTT, 3 mg/kg, -15 min): 82 mg/dL and 84 mg/dL and 94 mg/dL and 79 mg/dL
Blood glucose AUC (C57BL/6 mice; oral GTT, 10 mg/kg): 294 and 310 and 309 and 270 and 269
Plasma insulin AUC (C57BL/6 mice; oral GTT, 10 mg/kg): 0.29 and 0.30 and 0.32 and 0.43 and 0.41
Plasma insulin (C57BL/6 mice; oral GTT, 10 mg/kg, 15 min): 0.51 ng/mL and 0.50 ng/mL and 0.54 ng/mL and 0.40 ng/mL and 0.68 ng/mL
Plasma insulin (C57BL/6 mice; oral GTT, 10 mg/kg, 30 min): 0.35 ng/mL and 0.28 ng/mL and 0.43 ng/mL and 0.31 ng/mL and 0.46 ng/mL
Blood glucose AUC (C57BL/6 mice; oral GTT, 30 mg/kg): 258 and 200 and 219 and 225 and 241
Plasma insulin AUC (C57BL/6 mice; oral GTT, 30 mg/kg): 0.21 and 0.30 and 0.35 and 0.22 and 0.34
Plasma insulin (C57BL/6 mice; oral GTT, 30 mg/kg, 15 min): 0.46 ng/mL and 0.58 ng/mL and 0.48 ng/mL and 0.34 ng/mL
blood glucose levels after oral glucose load (in words) (C57BL/6 mice; oral GTT, given prior to glucose load, Fig. 2c): dose-dependent suppression of rise of the blood glucose levels
compound remaining [1]: 79%
